Structures can show the parent of a compound that is named as a salt.
biological target: T1, JAK3 (Homo sapiens, UniProt P52333); assay: Assay for CD23 expression on Ramos B-cells stimulated by IL-4 (Table IV: ability to inhibit JAK3 activity); assay type: cell-based; settings: tested under conditions described in Example 3 (so in the source)
T1 construct: The Ramos B-cell line was acquired from ATCC (ATCC Catalog No. CRL-1596); host or cells: Ramos B-cell line (human)
T1 sequence (P52333 1-1124): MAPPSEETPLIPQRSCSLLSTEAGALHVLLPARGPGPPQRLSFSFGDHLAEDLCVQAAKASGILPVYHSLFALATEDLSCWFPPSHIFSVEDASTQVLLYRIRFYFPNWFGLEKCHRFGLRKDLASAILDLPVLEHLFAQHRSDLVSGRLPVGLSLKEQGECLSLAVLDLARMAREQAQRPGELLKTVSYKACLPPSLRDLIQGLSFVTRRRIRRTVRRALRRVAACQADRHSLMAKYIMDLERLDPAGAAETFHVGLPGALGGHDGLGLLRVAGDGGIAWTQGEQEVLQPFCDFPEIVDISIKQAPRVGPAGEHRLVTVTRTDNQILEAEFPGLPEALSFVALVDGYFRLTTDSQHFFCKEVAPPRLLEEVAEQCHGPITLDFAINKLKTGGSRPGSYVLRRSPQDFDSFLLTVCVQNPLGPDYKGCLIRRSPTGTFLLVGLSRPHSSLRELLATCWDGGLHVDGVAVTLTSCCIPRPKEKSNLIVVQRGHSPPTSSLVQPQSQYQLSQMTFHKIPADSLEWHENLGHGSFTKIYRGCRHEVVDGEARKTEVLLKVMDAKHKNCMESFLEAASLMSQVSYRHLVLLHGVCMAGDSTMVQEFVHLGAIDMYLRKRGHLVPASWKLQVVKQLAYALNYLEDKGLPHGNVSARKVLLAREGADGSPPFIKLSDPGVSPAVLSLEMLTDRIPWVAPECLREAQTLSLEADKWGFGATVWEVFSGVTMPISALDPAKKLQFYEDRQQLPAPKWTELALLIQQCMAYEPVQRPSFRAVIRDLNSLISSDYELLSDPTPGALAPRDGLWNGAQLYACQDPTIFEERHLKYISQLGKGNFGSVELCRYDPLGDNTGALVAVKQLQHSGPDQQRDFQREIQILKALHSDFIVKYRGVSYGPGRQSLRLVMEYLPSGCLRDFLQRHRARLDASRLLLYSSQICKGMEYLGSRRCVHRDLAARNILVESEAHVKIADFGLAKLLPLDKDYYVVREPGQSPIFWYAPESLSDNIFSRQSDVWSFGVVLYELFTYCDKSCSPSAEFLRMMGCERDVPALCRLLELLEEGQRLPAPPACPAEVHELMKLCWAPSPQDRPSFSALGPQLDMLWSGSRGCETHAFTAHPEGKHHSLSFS
Procedure, shortened: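 Human Ramos B cells in RPMI with 5% serum, pre-incubated 1 h at 37 °C with compound or DMSO, then stimulated with IL-4 (final 50 units/mL) for 20–24 h. Surface CD23 upregulation measured by FACS staining as readout of JAK1/JAK3–Stat-6 signalling.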

| IC50 [nM] | Structure (SMILES) |
| --- | --- |
| < 500 | COc1ccc(Nc2ncc(F)c(Nc3cc(F)c4oc(=O)[nH]c4c3)n2)cc1C [Compound I-180, 5-(2-(4-methoxy-3-methylphenylamino)-5-fluoropyrimidin-4-ylamino)-7-fluorobenzo[d]oxazol-2(3H)-one trifluoroacetate salt] |
| < 500 | COc1cc(Nc2ncc(F)c(Nc3ccc4oc(=O)[nH]c4c3)n2)cc(C)c1F [Compound I-181, 5-(2-(4-fluoro-3-methoxy-5-methylphenylamino)-5-fluoropyrimidin-4-ylamino)benzo[d]oxazol-2(3H)-one trifluoroacetate salt] |
| < 500 | COc1cc(Nc2ncc(F)c(Nc3ccc4oc(=O)[nH]c4c3)n2)cc(C)c1OC [Compound I-182, 5-(2-(3,4-dimethoxy-5-methylphenylamino)-5-fluoropyrimidin-4-ylamino)benzo[d]oxazol-2(3H)-one trifluoroacetate salt] |
| < 500 | COc1cc(Nc2ncc(F)c(Nc3cc(C)c4oc(=O)[nH]c4c3)n2)cc(C)c1OC [Compound I-183, 5-(2-(3,4-dimethoxy-5-methylphenylamino)-5-fluoropyrimidin-4-ylamino)-7-methylbenzo[d]oxazol-2(3H)-one trifluoroacetate salt] |
| < 500 | COc1cc(Nc2ncc(F)c(Nc3cc(F)c4oc(=O)[nH]c4c3)n2)cc(C)c1OC [Compound I-184, 5-(2-(3,4-dimethoxy-5-methylphenylamino)-5-fluoropyrimidin-4-ylamino)-7-fluorobenzo[d]oxazol-2(3H)-one trifluoroacetate salt] |
| < 500 | COc1cc(Nc2ncc(F)c(Nc3ccc4oc(=O)[nH]c4c3)n2)cc(Cl)c1OC [Compound I-185, 5-(2-(3-chloro-4,5-dimethoxyphenylamino)-5-fluoropyrimidin-4-ylamino)benzo[d]oxazol-2(3H)-one trifluoroacetate salt] |
| < 500 | Cc1cc(C)cc(Nc2ncc(F)c(Nc3cc(F)c4oc(=O)[nH]c4c3)n2)c1 [Compound I-187, 5-(2-(3,5-dimethylphenylamino)-5-fluoropyrimidin-4-ylamino)-7-fluorobenzo[d]oxazol-2(3H)-one trifluoroacetate salt] |
| < 500 | Cc1cc(Nc2ncc(F)c(Nc3cc(F)c4oc(=O)[nH]c4c3)n2)cc(C)c1C [Compound I-188, 5-(2-(3,4,5-trimethylphenylamino)-5-fluoropyrimidin-4-ylamino)-7-fluorobenzo[d]oxazol-2(3H)-one trifluoroacetate salt] |
| < 500 | Cc1cc(Nc2ncc(F)c(Nc3cc(F)c4oc(=O)[nH]c4c3)n2)cc(C)c1F [Compound I-189, 5-(2-(4-fluoro-3,5-dimethylphenylamino)-5-fluoropyrimidin-4-ylamino)-7-fluorobenzo[d]oxazol-2(3H)-one trifluoroacetate salt] |
| 500 to 5000 | COc1cc(Nc2ncc(F)c(Nc3cc(C)c4oc(=O)[nH]c4c3)n2)cc(C)c1F [Compound I-190, 5-(2-(4-fluoro-3-methoxy-5-methylphenylamino)-5-fluoropyrimidin-4-ylamino)-7-methylbenzo[d]oxazol-2(3H)-one trifluoroacetate salt] |
| < 500 | COc1cc(Nc2ncc(F)c(Nc3cc(F)c4oc(=O)[nH]c4c3)n2)cc(C)c1F [Compound I-191, 5-(2-(4-fluoro-3-methoxy-5-methylphenylamino)-5-fluoropyrimidin-4-ylamino)-7-fluorobenzo[d]oxazol-2(3H)-one trifluoroacetate salt] |
| 500 to 5000 | COc1c(F)ccc(Nc2ncc(F)c(Nc3cc(C)c4oc(=O)[nH]c4c3)n2)c1F [Compound I-192, 5-(2-(2,4-difluoro-3-methoxyphenylamino)-5-fluoropyrimidin-4-ylamino)-7-methylbenzo[d]oxazol-2(3H)-one trifluoroacetate salt] |
| 500 to 5000 | COc1c(F)ccc(Nc2ncc(F)c(Nc3cc(F)c4oc(=O)[nH]c4c3)n2)c1F [Compound I-193, 5-(2-(2,4-difluoro-3-methoxyphenylamino)-5-fluoropyrimidin-4-ylamino)-7-fluorobenzo[d]oxazol-2(3H)-one trifluoroacetate salt] |
| 500 to 5000 | COc1cc(Nc2ncc(F)c(Nc3ccc4oc(=O)[nH]c4c3)n2)cc(OC)c1C [Compound I-194, 5-(2-(3,5-dimethoxy-4-methylphenylamino)-5-fluoropyrimidin-4-ylamino)benzo[d]oxazol-2(3H)-one trifluoroacetate salt] |
| < 500 | COc1cc(Nc2ncc(F)c(Nc3ccc4oc(=O)[nH]c4c3)n2)cc(C)c1C [Compound I-195, 5-(2-(3-methoxy-4,5-dimethylphenylamino)-5-fluoropyrimidin-4-ylamino)benzo[d]oxazol-2(3H)-one trifluoroacetate salt] |
| < 500 | COc1ccc(Nc2ncc(F)c(Nc3ccc4oc(=O)[nH]c4c3)n2)cc1 [Compound I-196, 5-(2-(4-methoxyphenylamino)-5-fluoropyrimidin-4-ylamino)benzo[d]oxazol-2(3H)-one formate salt] |
| < 500 | COc1ccc(Nc2ncc(F)c(Nc3ccc4oc(=O)[nH]c4c3)n2)cc1C(F)F [Compound I-197, 5-(2-(3-(difluoromethyl)-4-methoxyphenylamino)-5-fluoropyrimidin-4-ylamino)benzo[d]oxazol-2(3H)-one formate salt] |
| 500 to 5000 | CC(C)c1ccc(Nc2ncc(F)c(Nc3ccc4oc(=O)[nH]c4c3)n2)cc1 [Compound I-200, 5-(2-(4-isopropylphenylamino)-5-fluoropyrimidin-4-ylamino)benzo[d]oxazol-2(3H)-one trifluoroacetate salt] |
| 500 to 5000 | CC(C)(C)c1ccc(Nc2ncc(F)c(Nc3ccc4oc(=O)[nH]c4c3)n2)cc1 [Compound I-201, 5-(2-(4-tert-butylphenylamino)-5-fluoropyrimidin-4-ylamino)benzo[d]oxazol-2(3H)-one trifluoroacetate salt] |
| 500 to 5000 | Cc1ccc(Nc2ncc(F)c(Nc3ccc4oc(=O)[nH]c4c3)n2)cc1 [Compound I-202, 5-(2-(p-tolylamino)-5-fluoropyrimidin-4-ylamino)benzo[d]oxazol-2(3H)-one trifluoroacetate salt] |
| < 500 | Cc1ccc(Nc2ncc(F)c(Nc3ccc4oc(=O)[nH]c4c3)n2)cc1-c1ccncc1 [Compound I-203, 5-(2-(4-methyl-3-(pyridin-4-yl)phenylamino)-5-fluoropyrimidin-4-ylamino)benzo[d]oxazol-2(3H)-one] |
| < 500 | Cc1ccc(Nc2ncc(F)c(Nc3ccc4oc(=O)[nH]c4c3)n2)cc1-c1cccnc1 [Compound I-204, 5-(2-(4-methyl-3-(pyridin-3-yl)phenylamino)-5-fluoropyrimidin-4-ylamino)benzo[d]oxazol-2(3H)-one] |
| < 500 | O=c1[nH]c2cc(Nc3nc(Nc4ccc(F)c(-c5ccncc5)c4)ncc3F)ccc2o1 [Compound I-205, 5-(2-(4-fluoro-3-(pyridin-4-yl)phenylamino)-5-fluoropyrimidin-4-ylamino)benzo[d]oxazol-2(3H)-one] |
| < 500 | O=c1[nH]c2cc(Nc3nc(Nc4ccc(F)c(-c5cccnc5)c4)ncc3F)ccc2o1 [Compound I-206, 5-(2-(4-fluoro-3-(pyridin-3-yl)phenylamino)-5-fluoropyrimidin-4-ylamino)benzo[d]oxazol-2(3H)-one] |
| > 10000 | COc1cc(Nc2ncc(F)c(Nc3ccc4oc(=O)[nH]c4c3)n2)ccc1-c1ccncc1 [Compound I-207, 5-(2-(3-methoxy-4-(pyridin-4-yl)phenylamino)-5-fluoropyrimidin-4-ylamino)benzo[d]oxazol-2(3H)-one formate salt] |
| < 500 | COc1ccc(Nc2ncc(F)c(Nc3ccc4oc(=O)[nH]c4c3)n2)cc1-c1ccncc1 [Compound I-208, 5-(2-(4-methoxy-3-(pyridin-4-yl)phenylamino)-5-fluoropyrimidin-4-ylamino)benzo[d]oxazol-2(3H)-one formate salt] |
| < 500 | COc1ccc(Nc2ncc(F)c(Nc3ccc4oc(=O)[nH]c4c3)n2)cc1-c1cccnc1 [Compound I-209, 5-(2-(4-methoxy-3-(pyridin-3-yl)phenylamino)-5-fluoropyrimidin-4-ylamino)benzo[d]oxazol-2(3H)-one formate salt] |
